Patent publication US20110269680A1 (PANACEA BIOTEC LIMITED, priority 2008, published 2011)

What was measured:
C57/BL6 male mice = assay: OGTT and dose response effect of peptide of Seq ID No. 01; assay type: in vivo
Procedure: C57/BL6 male mice were fasted for 6 hrs. After 6 h of fasting, blood was drawn from a small tail clip for glucose level determination. […] Glucose was given orally at the ratio 1 mg/g body wt. per mouse 5 min after the administration of peptide. Blood glucose levels were determined at different time intervals i.e. at 0, 15, 30, 60, and 120 min during a period of 2 hours using a portable glucometer. The saline solution was used as control negative in the experiment.

db/db mice = assay: Anti-diabetic activity of peptide in db/db mice; assay type: in vivo; details: 25 nmol/kg daily i.p., versus saline
Procedure: Animals of two different age groups (6-8 and 10-12 weeks old db/db mice) were included in this study. 6-8 week old mice were chosen as pre-diabetic mice and 10-12 week old as the full-diabetic mice. The preventive effect of peptide of Seq. ID No. 01 on the progression of diabetes in pre-diabetic mice was examined. The effect of peptide of Seq. ID No. 01 in full-diabetic mice was also studied. […] Blood glucose levels were measured on day 0, 14, 28 and 42. Test peptide of Seq ID No. 01 was injected i.p. according to body weight and the feed was removed. Mice were not fed till 4 hrs following injection of the peptide on the day of blood sample testing. Normal chow was given after the 4 hr time point. […] Test compound/vehicle (saline solution i.e. control negative) to be administered at 0 hr.

NEP 24.11 = molecular target: T1, NEP 24.11 (Homo sapiens, UniProt P08473); assay: NEP 24.11 resistant (degradation) assay; assay type: in vitro ADME; details: pH 7.4
T1 construct: purchased Calbiochem
Procedure: The aliquots were analyzed for the amount of undegraded peptide concentration at different time intervals using RP-HPLC by peak area integration. T1/2 of each peptide was determined from the graph plotted between peak area of undegraded peptide vs time.

DPP-IV = molecular target: T2, DPP-IV (Homo sapiens, UniProt P27487); assay: DPP-IV resistant assay; assay type: in vitro ADME
T2 construct: purchased Sigma-Aldrich
Procedure: 20 μM of peptides of the present invention (Sequence IDs—01, 02, 03, 04, 05, 06, 11, 12 and 13) were incubated with 60 mU/2 ml of DPP-IV (Sigma-Aldrich) enzyme at room temperature (22-24° C.) in 20 mM Tris HCl buffer, pH 8.0. The aliquots were analyzed for the amount of undegraded peptide concentration at different time intervals by RP-HPLC. The peak area integration was used to determine the amount of undegraded peptide (U.S. Pat. No. 7,067,488). T1/2 of each peptide was determined from the graph plotted between peak area of undegraded peptide vs. time. The peak area of DPP-IV untreated peptide in above mentioned buffer condition of same concentration was considered as time zero. […]

T1 sequence (P08473 whole entry): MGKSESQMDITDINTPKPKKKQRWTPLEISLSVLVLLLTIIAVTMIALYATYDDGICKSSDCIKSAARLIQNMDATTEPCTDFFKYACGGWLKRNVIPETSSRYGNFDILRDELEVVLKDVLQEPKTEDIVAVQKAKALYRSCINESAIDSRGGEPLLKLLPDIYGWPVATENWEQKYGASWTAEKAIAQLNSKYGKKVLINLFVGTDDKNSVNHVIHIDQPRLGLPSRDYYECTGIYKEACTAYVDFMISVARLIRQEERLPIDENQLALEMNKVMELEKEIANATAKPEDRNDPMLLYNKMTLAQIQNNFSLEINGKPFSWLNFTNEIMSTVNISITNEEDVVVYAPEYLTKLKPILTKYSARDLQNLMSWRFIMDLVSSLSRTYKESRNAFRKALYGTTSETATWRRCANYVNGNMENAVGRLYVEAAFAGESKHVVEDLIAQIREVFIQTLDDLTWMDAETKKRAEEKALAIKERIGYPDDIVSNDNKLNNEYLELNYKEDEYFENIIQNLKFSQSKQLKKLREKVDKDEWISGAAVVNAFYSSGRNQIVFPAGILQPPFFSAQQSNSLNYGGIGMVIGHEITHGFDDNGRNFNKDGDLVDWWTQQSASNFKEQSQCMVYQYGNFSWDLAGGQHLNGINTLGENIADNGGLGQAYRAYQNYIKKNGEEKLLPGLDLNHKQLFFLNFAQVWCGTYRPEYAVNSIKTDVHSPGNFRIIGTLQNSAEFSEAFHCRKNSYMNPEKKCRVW
T2 sequence (P27487 whole entry, species assumed): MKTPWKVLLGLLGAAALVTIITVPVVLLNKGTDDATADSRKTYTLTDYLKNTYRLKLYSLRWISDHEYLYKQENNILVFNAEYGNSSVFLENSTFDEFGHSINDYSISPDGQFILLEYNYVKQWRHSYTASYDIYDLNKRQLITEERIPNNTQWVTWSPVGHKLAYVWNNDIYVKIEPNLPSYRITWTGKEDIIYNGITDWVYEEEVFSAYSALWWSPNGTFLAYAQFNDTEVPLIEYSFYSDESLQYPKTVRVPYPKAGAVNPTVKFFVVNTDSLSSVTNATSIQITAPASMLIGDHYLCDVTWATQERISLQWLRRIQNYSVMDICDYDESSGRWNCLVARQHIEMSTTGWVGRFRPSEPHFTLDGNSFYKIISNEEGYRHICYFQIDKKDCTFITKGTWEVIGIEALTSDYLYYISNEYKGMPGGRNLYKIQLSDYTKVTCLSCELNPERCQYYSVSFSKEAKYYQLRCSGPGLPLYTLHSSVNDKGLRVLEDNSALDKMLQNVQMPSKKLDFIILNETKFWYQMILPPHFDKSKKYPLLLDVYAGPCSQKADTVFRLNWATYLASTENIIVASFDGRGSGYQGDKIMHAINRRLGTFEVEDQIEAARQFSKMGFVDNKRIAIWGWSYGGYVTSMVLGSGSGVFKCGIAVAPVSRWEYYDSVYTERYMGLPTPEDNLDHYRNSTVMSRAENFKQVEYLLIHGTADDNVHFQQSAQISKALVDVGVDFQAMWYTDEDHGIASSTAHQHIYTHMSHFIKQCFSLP

half-life at 20 μM (NEP 24.11; buffer): 29 h
metabolised at 54 h, 20 μM (NEP 24.11; isolated enzyme neprilysin): 92.6%
Percentage degradation in hrs (DPP-IV): 25%
half-life at 20 μM (DPP-IV; pH 8): > 72 h
Compound: CC[C@H](C)[C@H](NC(=O)[C@H](Cc1ccccc1)NC(=O)[C@H](CCC(=O)O)NC(=O)[C@H](CCCCN)NC(=O)[C@H](C)NC(=O)[C@H](C)NC(=O)[C@H](CCC(N)=O)NC(=O)CNC(=O)[C@H](CCC(=O)O)NC(=O)[C@H](CC(C)C)NC(=O)[C@H](Cc1ccc(O)cc1)NC(=O)[C@H](CO)NC(=O)[C@H](CO)NC(=O)[C@@H](NC(=O)[C@H](CC(=O)O)NC(=O)[C@H](CO)NC(=O)[C@@H](NC(=O)[C@H](Cc1ccccc1)NC(=O)[C@@H](NC(=O)CNC(=O)[C@H](CCC(=O)O)NC(=O)c1ccc(CNC(=O)[C@@H](N)Cc2c[nH]cn2)o1)[C@@H](C)O)[C@@H](C)O)C(C)C)C(=O)N[C@@H](C)C(=O)N[C@@H](Cc1c[nH]c2ccccc12)C(=O)N[C@@H](CC(C)C)C(=O)N[C@H](C(=O)N[C@@H](CCCCN)C(=O)NCC(=O)N[C@@H](CCCNC(=N)N)C(=O)NCC(N)=O)C(C)C [Seq ID No. 01]
optimum dose (C57/BL6 male mice; OGTT dose response, intraperitoneally): 25 nmol/kg
dose response, percent reduction in blood glucose (AUC0-60) (C57/BL6 male mice; OGTT, 100, 25, 10, 5 and 1 nmol/kg intraperitoneally, FIG. 11): no significant difference between 100 nmol and 25 nmol doses
blood glucose level, progression of diabetes (db/db mice; 6-8 weeks old db/db mice, 42 days): delayed the progression of diabetes as compared to control negative group
blood glucose level, activity versus control negative (db/db mice; 10-12 weeks old db/db mice, 28 days): better activity as compared to control negative group
